{"source": "patent US20130331331A1", "about": "“HEXAPEPTIDE WITH IMPROVED ACTIVITY IN THE REPAIR OF CELLULAR DNA OF DERMAL CELLS” (priority 2011, published 2013)", "key": {"melanocytes strain 1505b": {"test_system": "melanocytes strain 1505b", "experiment": "cAMP levels, radioimmunoassay, strain 1505b", "format": "cell-based, human", "conditions": "1 nM, 45 min, 0.1 mM IBMX", "experimental": "Dose-response experiments were carried out on three melanocytic strains, namely strains 1513c, 1505b and 105c melanocytes were treated with 1 pM-10 nM CUV9900 or NDP-MSH, or with 0.1-10 nM MSH for 45 minutes in the presence of 0.1 mM isobutyl methylxanthine (IBMX). The results obtained from strain 1513c are shown in FIG. 3, the results obtained from strain 1505b are shown in FIG. 5a and the results obtained from strain 105c are shown in FIG. 5b. The strains 1505b and 1513c were obtained from the same human adult while the strain 105c was obtained from another human adult. Cyclic AMP is the second messenger for the melanocortin-1 receptor, and assessment is usually performed indicating cellular activity reflective of melanogenesis. Cyclic AMP levels were determined using ^125I-labeled radioimmunoassay kit (Perkin Elmer, Waltham, Mass.), in human melanocytes that were treated with 0 (control), 0.1-10.0 nM α-MSH, or 0.001-10 nM NDP-MSH or 0.001-10.0 nM CUV 9900 for […]. in the presence of 0.1 mM IBMX, a phosphodiesterase inhibitor to prevent cAMP degradation. Triplicate wells were included in each group, and duplicate samples from each well were assayed for cAMP levels. Each data point is the mean percent of control of 6 determinations/group±S.E."}, "melanocyte strain 1513c": {"test_system": "melanocyte strain 1513c", "experiment": "Tyrosinase activity as a measure of stability / residual effect, strain 1513c", "format": "cell-based, human", "experimental": "To determine the residual effect of CUV9900, as compared to NDP-MSH and α-MSH, on tyrosinase activity, melanocytes were treated with either CUV9900 or NDP-MSH at the concentrations previously described for a total of 3 days. Tyrosinase activity was measured at the end of the 3 days of treatment, and 2 and 4 days after maintenance of the melanocytes in the complete absence of any treatment.\nWith continued reference to FIGS. 7, 8 and 9, to determine the stability of CUV9900 versus that of NDP-MSH and α-MSH, melanocytes were treated with 1 nM of each peptide, namely with CUV9900, NDP-MSH and α-MSH, for a total of 6 days, or with 1 nM peptides that were incubated for 5 hours at 37° C. prior to addition to the cultures, every other day, for a total of 6 days. Tyrosinase activity was measured at the end of treatment. In the experiments, cell number represents the mean percent of control of 3 determinations/group±SE, and tyrosinase activity data represent the mean percent of control of 6 determinations±S.E. It should be noted that for the sake of reproducibility the experiment of strain 1513c of FIG. 9 was performed once more 6 months later than the experiment of FIG. 7.\nMelanocytes were treated for 3 days with the designated concentrations of CUV9900, NDP-MSH, or MSH, then maintained in absence of peptides for 4 days. Tyrosinase activity was determined 3 days after treatment.\nComparison of stability of CUV9900, NDP-MSH and MSH was compared in 1513c, as shown in FIG. 7; the strain was treated for 6 days with 1 nM CUV9900, NDP-MSH or MSH with fresh medium and peptide replenished every 2 days. Melanocytes were treated according to the same experiment protocol but each peptide was incubated for 5-7 hours at 37 degrees Celsius. […] The assessment of tyrosinase was statistically different from control, as determined by ANOVA (p=<0.05).\nTyrosinase activity as a measure of stability is shown in Tables 4 to 6 below, wherein Table 4 is based on data derived from FIG. 7, Table 5 is based on data derived from FIG. 9, and Table 6 is based on data derived from FIG. 8: […]"}}, "note": "Non-standard residues stand in square brackets, D forms with d. Nle = CCCC[C@H](N)C(=O)O", "data": [{"substance": "Ac-Nle-Glu His-D-Phe-Arg-Trp-NH2 (Ac-[Nle]EH[dF]RW-NH2; SMILES CCCC[C@H](NC(C)=O)C(=O)N[C@@H](CCC(=O)O)C(=O)N[C@@H](Cc1c[nH]cn1)C(=O)N[C@H](Cc1ccccc1)C(=O)N[C@@H](CCCNC(=N)N)C(=O)N[C@@H](Cc1c[nH]c2ccccc12)C(N)=O) [CUV9900, hexapeptide alpha-MSH analogue]", "values": [{"measurement": "cAMP, potency comparison", "setting": "melanocytes strain 1505b", "result": "more potent than MSH"}, {"measurement": "tyrosinase activity, comparison in words", "setting": "melanocyte strain 1513c; first experiment in strain 1513c (Table 4)", "result": "increased tyrosinase activity in comparison to Control and MSH, but marginally less than NDP-MSH"}, {"measurement": "Tyrosinase activity, Mean", "setting": "melanocyte strain 1513c; strain 1513c [1], 1 nM, mean of columns 1-3", "result": "215.7 % of control"}, {"measurement": "effect of incubating the peptide on its stimulation of tyrosinase activity", "setting": "melanocyte strain 1513c; strain 1513c, 1 nM peptide incubated 5-7 hours at 37 degrees Celsius", "result": "no effect on its ability to stimulate tyrosinase activity"}, {"measurement": "Tyrosinase activity, Mean [1 + 2]", "setting": "melanocyte strain 1513c; strain 1513c, mean over experiments [1] and [2]", "result": "284.2 % of control"}]}]}
